According to PMC5915149, “The role of oxidative stress in activity of anticancer thiosemicarbazones” (Oncotarget, 2018):

Tests used:
[1] = tested on: NHDF; design: method as in PMID 25329549; details: 96 h incubation, MTS; cited from earlier work
[2] = tested on: calf-thymus DNA (CT-DNA); assay: Intercalation, absorption spectra with CT-DNA; type: binding
Procedure: For the DNA binding studies, Calf-thymus DNA (CT-DNA) was purchased from Sigma Aldrich. The lyophilized CT-DNA was dissolved in 10 mM Tris-HCl, pH 7.9, mixed gently and left overnight at 4° C. The purity of the CT-DNA solution was determined by measuring the ratio of UV absorbance at 260 and 280 nm. […] Then, the concentration of CT-DNA was determined from the absorbance at 260 nm using an extinction coefficient of 6600 M^–1cm^–1. The tested TSC and DOX were dissolved in DMSO to a concentration of 8.35 mM, which was then used as the stock solution for preparing the various concentrations (25, 12.5, 6 and 3 µM) in 1 mL in 10 mM of Tris-HCl (pH 7.9). Afterwards, 18 µM CT-DNA was added to the prepared solutions, which were incubated for 1.5 h at 37° C with occasional vortexing. The absorption spectra were measured using a Hitachi U-2900 spectrophotometer in range of 200–500 nm. All absorption spectra were imported and compared in OriginPro 8.0.

[3] = tested on: CAT; assay: mRNA expression (Real-Time PCR) of CAT; type: cell-based, human; details: HCT116, TSC 1 µM, after the first 12 h
Procedure: The HCT116 cells were seeded in 3 cm Petri dishes (Nunc) at a density of 0.5·10^6 cells/well and incubated overnight. Next, the medium was removed and solutions of TSC (1 μM) and DOX (5 μM) were added. After 12 or 24 h, total RNA was isolated from the cells using TRIzol Reagent (Ambion) according to the manufacturer’s instructions. cDNA synthesis was performed with 5 μg of total RNA using a GoScript™ Reverse Transcriptase kit (Promega) and Oligo(dT)23 Primers (Sigma). The Real-Time PCR was performed with a CTX96 Touch™ Real-Time PCR Detection System (Biorad) in a 20 μL reaction volume. The reaction consisted of PowerUp™ SYBR® Green Master Mix (Applied Biosystems), a primer pair mix (0.5 μM each) and 1 μL of cDNA. All primer pair sequences were purchased from Sigma-Aldrich and are listed in Supplementary Table 2. The experiment was performed under the following conditions: initial denaturation at 95° C for 120 sec; followed by 40 denaturation cycles at 95° C, 15 sec; annealing (primer-specific temperature for 30 sec) and extension at 72° C for 60 sec. Data was analyzed based on a comparison of the expression of the target genes to a reference gene – β-actin, using the 2^–ΔΔCT method. The experiments were performed at least three times.

[4] = tested on: HCT116 cells; assay: Cell cycle assay (Muse Cell-Cycle Kit); type: cell-based, human; details: HCT116, TSC 1 µM, 48 h
Procedure: The HCT116 cells were seeded in 3 cm Petri dishes (Nunc) at a density of 0.25·10^6 cells/well and incubated at 37° C for 24 h. […] After a 48 h treatment, assays were performed using a Muse Cell-Cycle Kit (Millipore) according to the manufacturer’s instructions. Briefly, cells were collected, washed with cold PBS and centrifuged at 300 g. Then, the cells were fixed in ice cold 70% ethanol and stored at –20° C overnight. Afterwards, the cells were centrifuged and resuspended in 200 μL of Muse™ Cell Cycle Reagent and incubated for 30 min at room temperature in the dark. After staining, the cells were processed for cell cycle analysis using a Muse Cell Analyzer (Millipore). The experiments were performed at least three times.

SMILES: S=C(NN=C(c1ccccn1)c1ccccn1)N1CCN(c2ccccc2)CC1 [Compound 3a]
- IC50 [1]: 1.73 ± 0.71 nM
- % hypochromism ([2]; bound to CT-DNA): 28.2%
- Changes in absorbance ([2]; bound to CT-DNA): hypochromism
- Δε ([2]; bound to CT-DNA): 4120.0 M⁻¹ cm⁻¹
- blue/red shift ([2]; wavelengths of maximum absorption, compound alone vs DNA-bound): 5 nm
- mRNA expression of CAT [3]: higher
- cells in S phase [4]: 33–35%
- cells in G2/M phase ([4]; untreated 7%): 17%
